Results from ChEMBL document CHEMBL1201862, “PubChem BioAssay data set” (2004).
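96-well plates; 48 h exposure; 5 concentrations. Endpoints by linear interpolation between flanking doses. Not reached: highest tested concentration assigned. GI50: concentration for 50% inhibition of growth.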 Activity calls are given as the source filed them. Cut-off read from the data, not from the text of the source: active = GI50 up to about 1.1 µM and inactive = higher.

Experiments:
Assay in all cases: NCI tumour cell line growth inhibition, 48 h
[1] = test system: TK-10
[2] = test system: OVCAR-3
[3] = test system: HOP-62
[4] = test system: T47D
[5] = test system: A549
[6] = test system: BT-549
[7] = test system: SNB-75
[8] = test system: UACC-62
[9] = test system: NCI-H23
[10] = test system: SK-OV-3
[11] = test system: HL-60
[12] = test system: SN12C
[13] = test system: NCI-H226
[14] = test system: CAKI-1
[15] = test system: LOX IMVI
[16] = test system: M14
[17] = test system: UO-31
[18] = test system: OVCAR-4
[19] = test system: PC-3
[20] = test system: NCI-H522
[21] = test system: SR
[22] = test system: SK-MEL-5
[23] = test system: SNB-19
[24] = test system: SK-MEL-28
[25] = test system: KM12
[26] = test system: HCT-116
[27] = test system: IGROV-1
[28] = test system: SW-620
[29] = test system: DU-145
[30] = test system: NCI/ADR-RES
[31] = test system: SF-268
[32] = test system: SF-539
[33] = test system: MDA-MB-435
[34] = test system: HOP-92
[35] = test system: OVCAR-8
[36] = test system: UACC-257
[37] = test system: MDA-MB-231
[38] = test system: CCRF-CEM
[39] = test system: MCF7
[40] = test system: Hs-578T
[41] = test system: Malme-3M
[42] = test system: OVCAR-5
[43] = test system: A498
[44] = test system: EKVX
[45] = test system: HCC 2998
[46] = test system: 786-0
[47] = test system: U-251
[48] = test system: COLO 205
[49] = test system: RPMI-8226
[50] = test system: MDA-N
[51] = test system: HT-29
[52] = test system: NCI-H460
[53] = test system: SF-295
[54] = test system: SK-MEL-2
[55] = test system: ACHN
[56] = test system: RXF 393
[57] = test system: HCT-15
[58] = test system: MOLT-4
[59] = test system: K562

O=C(O)Cc1cc(Cl)ccc1O
GI50 [1]: > 100 µM (inactive)
GI50 [2]: > 100 µM (inactive)
GI50 [3]: > 100 µM (inactive)
GI50 [4]: > 100 µM (inactive)
GI50 [5]: > 100 µM (inactive)
GI50 [6]: > 100 µM (inactive)
GI50 [7]: > 100 µM (inactive)
GI50 [8]: > 100 µM (inactive)
GI50 [9]: > 100 µM (inactive)
GI50 [10]: > 100 µM (inactive)
GI50 [11]: > 100 µM (inactive)
GI50 [12]: > 100 µM (inactive)
GI50 [13]: > 100 µM (inactive)
GI50 [14]: > 100 µM (inactive)
GI50 [15]: > 100 µM (inactive)
GI50 [16]: > 100 µM (inactive)
GI50 [17]: > 100 µM (inactive)
GI50 [18]: > 100 µM (inactive)
GI50 [19]: > 100 µM (inactive)
GI50 [20]: > 100 µM (inactive)
GI50 [21]: > 76.9 µM (inactive)
GI50 [22]: > 100 µM (inactive)
GI50 [23]: > 100 µM (inactive)
GI50 [24]: > 100 µM (inactive)
GI50 [25]: > 100 µM (inactive)
GI50 [26]: > 100 µM (inactive)
GI50 [27]: > 100 µM (inactive)
GI50 [28]: > 100 µM (inactive)
GI50 [29]: > 100 µM (inactive)
GI50 [30]: > 100 µM (inactive)
GI50 [31]: > 100 µM (inactive)
GI50 [32]: > 100 µM (inactive)
GI50 [33]: > 100 µM (inactive)
GI50 [34]: > 100 µM (inactive)
GI50 [35]: > 100 µM (inactive)
GI50 [36]: > 100 µM (inactive)
GI50 [37]: > 100 µM (inactive)
GI50 [38]: > 100 µM (inactive)
GI50 [39]: > 100 µM (inactive)
GI50 [40]: > 100 µM (inactive)
GI50 [41]: > 100 µM (inactive)
GI50 [42]: > 100 µM (inactive)
GI50 [43]: > 100 µM (inactive)
GI50 [44]: > 100 µM (inactive)
GI50 [45]: > 100 µM (inactive)
GI50 [46]: > 100 µM (inactive)
GI50 [47]: > 100 µM (inactive)
GI50 [48]: > 100 µM (inactive)
GI50 [49]: > 100 µM (inactive)
GI50 [50]: > 100 µM (inactive)
GI50 [51]: > 100 µM (inactive)
GI50 [52]: > 100 µM (inactive)
GI50 [53]: > 100 µM (inactive)
GI50 [54]: > 100 µM (inactive)
GI50 [55]: > 100 µM (inactive)
GI50 [56]: > 100 µM (inactive)
GI50 [57]: > 100 µM

CC(CC[C@@]1(O)OC2C[C@H]3[C@@H]4CC[C@H]5CC(OC6OC(CO)C(OC7OC(CO)C(O)C(OC8OCC(O)C(O)C8O)C7OC7OC(CO)C(O)C(O)C7O)C(O)C6O)[C@H](O)CC5(C)[C@H]4CCC3(C)C2[C@@H]1C)COC1OC(CO)C(O)C(O)C1O (stereo partly drawn)
GI50 [1]: 2.39 µM (inactive)
GI50 [2]: 3.46 µM (inactive)
GI50 [3]: 4.15 µM (inactive)
GI50 [4]: 12.2 µM (inactive)
GI50 [5]: 3.47 µM (inactive)
GI50 [6]: 1.76 µM (inactive)
GI50 [7]: 0.64 µM (active)
GI50 [8]: 16.4 µM (inactive)
GI50 [9]: 2.8 µM (inactive)
GI50 [10]: 13.2 µM (inactive)
GI50 [11]: 6.9 µM (inactive)
GI50 [12]: 2.35 µM (inactive)
GI50 [13]: 13.5 µM (inactive)
GI50 [14]: 4.76 µM (inactive)
GI50 [15]: 8.97 µM (inactive)
GI50 [16]: 25 µM (inactive)
GI50 [17]: 6.84 µM (inactive)
GI50 [18]: 9.79 µM (inactive)
GI50 [19]: 10.3 µM (inactive)
GI50 [20]: 2.87 µM (inactive)
GI50 [21]: 7.85 µM (inactive)
GI50 [22]: 6.9 µM (inactive)
GI50 [23]: 28.3 µM (inactive)
GI50 [24]: 29.2 µM (inactive)
GI50 [25]: 15.3 µM (inactive)
GI50 [26]: 3.67 µM (inactive)
GI50 [27]: 11.3 µM (inactive)
GI50 [28]: 11.6 µM (inactive)
GI50 [58]: 2.45 µM (inactive)
GI50 [29]: 3.09 µM (inactive)
GI50 [30]: 6.65 µM (inactive)
GI50 [31]: 2.48 µM (inactive)
GI50 [32]: 3.73 µM (inactive)
GI50 [33]: 14.8 µM (inactive)
GI50 [34]: 17.7 µM (inactive)
GI50 [35]: 9.86 µM (inactive)
GI50 [36]: 15.8 µM (inactive)
GI50 [37]: 25.9 µM (inactive)
GI50 [38]: 3.26 µM (inactive)
GI50 [39]: 8.71 µM (inactive)
GI50 [40]: 4.73 µM (inactive)
GI50 [41]: 15.2 µM (inactive)
GI50 [42]: 11.7 µM (inactive)
GI50 [43]: 18.9 µM (inactive)
GI50 [44]: 2.38 µM (inactive)
GI50 [45]: 13.8 µM (inactive)
GI50 [46]: 3.43 µM (inactive)
GI50 [47]: 15.5 µM (inactive)
GI50 [48]: 13 µM (inactive)
GI50 [49]: 19.4 µM (inactive)
GI50 [50]: 15.4 µM (inactive)
GI50 [51]: 11 µM (inactive)
GI50 [59]: 16.6 µM (inactive)
GI50 [52]: 2.09 µM (inactive)
GI50 [53]: 4.24 µM (inactive)
GI50 [54]: 13.4 µM (inactive)
GI50 [55]: 2.09 µM (inactive)
GI50 [56]: 4.28 µM (inactive)
GI50 [57]: 20.9 µM

NC(Cc1ccc(OCc2ccccc2)cc1)C(=O)NC(Cc1ccccc1)C(=O)Oc1c(Cl)c(Cl)c(Cl)c(Cl)c1Cl (stereo not drawn)
GI50 [1]: 15.3 µM (inactive)
GI50 [2]: 15.5 µM (inactive)
GI50 [3]: 16.6 µM (inactive)
GI50 [4]: 17.9 µM (inactive)
GI50 [5]: 18.4 µM (inactive)
GI50 [6]: 17.5 µM (inactive)
GI50 [7]: 15.7 µM (inactive)
GI50 [8]: 17 µM (inactive)
GI50 [9]: 16.8 µM (inactive)
GI50 [10]: 14.7 µM (inactive)
GI50 [11]: 69.5 µM (inactive)
GI50 [12]: 17.3 µM (inactive)
GI50 [13]: 13.2 µM (inactive)
GI50 [14]: 16.7 µM (inactive)
GI50 [15]: 14 µM (inactive)
GI50 [16]: 14.2 µM (inactive)
GI50 [17]: 16.4 µM (inactive)
GI50 [18]: 17.4 µM (inactive)
GI50 [19]: 17.7 µM (inactive)
GI50 [20]: 23.1 µM (inactive)
GI50 [21]: 54.1 µM (inactive)
GI50 [22]: 17.3 µM (inactive)
GI50 [23]: 17.7 µM (inactive)
GI50 [24]: 16.5 µM (inactive)
GI50 [25]: 15.4 µM (inactive)
GI50 [26]: 17.5 µM (inactive)
GI50 [27]: 15.3 µM (inactive)
GI50 [28]: 16.8 µM (inactive)
GI50 [58]: 39.2 µM (inactive)
GI50 [29]: 12.8 µM (inactive)
GI50 [30]: 17.9 µM (inactive)
GI50 [31]: 20.3 µM (inactive)
GI50 [32]: 16.7 µM (inactive)
GI50 [33]: 18.3 µM (inactive)
GI50 [34]: 11.9 µM (inactive)
GI50 [35]: 16.5 µM (inactive)
GI50 [36]: 15.9 µM (inactive)
GI50 [37]: 13 µM (inactive)
GI50 [38]: > 100 µM (inactive)
GI50 [39]: 19 µM (inactive)
GI50 [40]: 14 µM (inactive)
GI50 [41]: 20.9 µM (inactive)
GI50 [42]: 15.6 µM (inactive)
GI50 [43]: 20.9 µM (inactive)
GI50 [44]: 17.7 µM (inactive)
GI50 [45]: 19.1 µM (inactive)
GI50 [47]: 17.1 µM (inactive)
GI50 [48]: 14.6 µM (inactive)
GI50 [49]: 40.9 µM (inactive)
GI50 [50]: 12.7 µM (inactive)
GI50 [51]: 17.5 µM (inactive)
GI50 [59]: 53.1 µM (inactive)
GI50 [52]: 14.7 µM (inactive)
GI50 [54]: 13.3 µM (inactive)
GI50 [55]: 16.5 µM (inactive)
GI50 [56]: 15 µM (inactive)
GI50 [57]: 16.4 µM
